# Columns and labels:
# [1] = In vitro permeation (Hanson Microette Franz Cell), flux across polysulfone membrane; format: in vitro ADME
# Experimental: (§1) An in vitro permeation procedure for oxymetazoline cream was developed using the 0.01 and 0.10% w/w oxymetazoline cream. The in vitro experiments were conducted using Hanson Microette Franz Cell apparatus and 0.01N PBS (pH 7.4) as the receiving medium. Other critical parameters were evaluated such as the type of semi-synthetic membrane, sample timing (time dependent release-permeability profile), method sensitivity, specificity and linearity.
# Permeation characterization of oxymetazoline cream of different strengths (0.01% w/w, 0.05% w/w, 0.10% w/w and 0.15% w/w) was based on flux study across two different artificial membranes (cellulose acetate and polysulfone). The concentration of oxymetazoline which permeated through the membranes was measured using an HPLC assay.
# [2] = In vitro permeation (Hanson Microette Franz Cell), flux across cellulose acetate membrane; format: in vitro ADME
# Experimental: as §1, with “linearity. Permeation characterization of oxymetazoline cream of different strengths (0.01% w/w, 0.05% w/w, 0.10% w/w and 0.15% w/w) was based on flux study across two different artificial membranes (cellulose acetate and polysulfone). The concentration of oxymetazoline which permeated through the membranes was measured using an HPLC assay.” for “linearity.”
# [3] = concentration range 0.01-0.10% w/w
# [4] = creams 0.01-0.15% w/w, dump and die profile
smiles,measurement,setting,value
"Cc1cc(C(C)(C)C)c(O)c(C)c1CC1=NCCN1 [oxymetazoline, 3-(4,5-dihydro-1H-imidazol-2-ylmethyl)-2,4-dimethyl-6-tert-butyl-phenol]",concentration level above which in vitro membrane transport reached saturation,[1],> 0.1 % w/w
same,Oxymetazoline permeability (AUC0-24h) as a function of concentration,[1]; [3],linearly increased
same,time of peak of oxymetazoline permeation rate after cream application,[1]; [4],0.5 h
same,concentration level above which in vitro membrane transport reached saturation,[2],> 0.1 % w/w
same,Oxymetazoline permeability (AUC0-24h) as a function of concentration,[2]; [3],linearly increased
same,time of peak of oxymetazoline permeation rate after cream application,[2]; [4],0.5 h

# Reference: patent US20140113947A1, “PHARMACEUTICAL CREAM COMPOSITIONS OF OXYMETAZOLINE AND METHODS OF USE” (Allergan, Inc., priority 2011, published 2014)
